Results published in patent publication US7803795B2, “Phthalazine derivatives as parp inhibitors” (Janssen Pharmaceutica N.V., priority 2004, dated 2010).

Key:
[1] = tested on: heart (ischemia and reperfusion); conditions: rabbits, cited from earlier work
[2] = target: T1, PARP-1 enzyme (Homo sapiens, UniProt P09874); experiment: in vitro filtration assay for PARP-1 inhibitory activity; type: biochemical; conditions: [32P]-NAD, histones, nicked DNA; dose-response 10^-5 M to 10^-8 M; read-out: in vitro filter assay PARP-1 pIC50 (converted)
T1 construct: made in house
Experimental: In Vitro Filtration Assay for PARP-1 Inhibitory Activity
Compounds of the present invention were tested in an in vitro filtration assay assessing PARP-1 activity (triggered in the presence of nicked DNA) by means of its histone poly (ADP-ribosylation activity using [^32P]-NAD as ADP-ribosyl donor. The radioactive ribosylated histones were precipitated by trichloroacetic acid (TCA) in 96-well filterplates and the incorporated [^32P] measured using a scintillation counter
A mixture of histones (stock solution: 5 mg/ml in H2O), NAD^+ (stock solution: 100 mM in H2O), and [^32P]-NAD^+ in incubation buffer (50 mM Tris/HCl, pH 8; 0.2 mM DTT; 4 mM MgCl2) was made. A mixture of the PARP-1 enzyme (5-10 μg/ml) and nicked DNA was also made. The nicked DNA was prepared as described in the in vitro SPA for PARP-1 inhibitory activity. Seventy-five μl of the PARP-1 enzyme/DNA mixture together with 1 μl of compound in DMSO and 25 μl of histones-NAD^+/[^32P]-NAD^+ mixture was added per well of a 96-well filterplate (0.45 μm, supplier Millipore). The final concentrations in the incubation mixture were 2 μg/ml for the histones, 0.1 mM for the NAD^+, […] (0.5 μC) for the [^32P]-NAD^+ and 2 μg/ml for the nicked DNA. Plates were incubated for 15 min. at room temperature and the reaction was terminated by the addition of 10 μl ice cold 100% TCA followed by the addition of 10 μl ice-cold BSA solution (1% in H2O). The protein fraction was allowed to precipitate for 10 min. at 4° C. and plates were vacuum filtered. The plates were subsequently washed with, for each well, 1 ml of 10% ice cold TCA, 1 ml of 5% ice cold TCA and 1 ml of 5% TCA at room temperature. Finally 100 μl of scintillation solution (Microscint 40, Packard) was added to each well and the plates were transferred to a TopCountNXT™ (supplier: Packard) for scintillation counting and values were expressed as counts per minute (cpm). For each experiment, controls (containing PARP-1 enzyme and DMSO without compound), a blank incubation (containing DMSO but no PARP-1 enzyme or compound) and samples (containing PARP-1 enzyme and compound dissolved in DMSO) were run in parallel. All compounds tested were dissolved and eventually further diluted in DMSO. In first instance, compounds were tested at a concentration of 10^−5M. […] In each test, the blank value was subtracted from both the control and the sample values. The control sample represented maximal PARP-1 enzyme activity. For each sample, the amount of cpm was expressed as a percentage of the mean cpm value of the controls. When appropriate, IC50-values (concentration of the drug, needed to reduce the PARP-1 enzyme activity to 50% of the control) were computed using linear interpolation between the experimental points just above and below the 50% level. Herein the effects of test compounds are expressed as pIC50 (the negative log value of the IC50-value). As a reference compound, 4-amino-1,8-naphthalimide was included to validate the filtration assay.

[3] = target: T2, TANK-2 enzyme (Homo sapiens, UniProt Q9H2K2); experiment: in vitro Scintillation Proximity Assay (SPA) for TANK-2 inhibitory activity; type: biochemical
T2 construct: His tag (inferred from capture on a Ni-coated plate); made in house
T2 sequence (Q9H2K2 1-1166): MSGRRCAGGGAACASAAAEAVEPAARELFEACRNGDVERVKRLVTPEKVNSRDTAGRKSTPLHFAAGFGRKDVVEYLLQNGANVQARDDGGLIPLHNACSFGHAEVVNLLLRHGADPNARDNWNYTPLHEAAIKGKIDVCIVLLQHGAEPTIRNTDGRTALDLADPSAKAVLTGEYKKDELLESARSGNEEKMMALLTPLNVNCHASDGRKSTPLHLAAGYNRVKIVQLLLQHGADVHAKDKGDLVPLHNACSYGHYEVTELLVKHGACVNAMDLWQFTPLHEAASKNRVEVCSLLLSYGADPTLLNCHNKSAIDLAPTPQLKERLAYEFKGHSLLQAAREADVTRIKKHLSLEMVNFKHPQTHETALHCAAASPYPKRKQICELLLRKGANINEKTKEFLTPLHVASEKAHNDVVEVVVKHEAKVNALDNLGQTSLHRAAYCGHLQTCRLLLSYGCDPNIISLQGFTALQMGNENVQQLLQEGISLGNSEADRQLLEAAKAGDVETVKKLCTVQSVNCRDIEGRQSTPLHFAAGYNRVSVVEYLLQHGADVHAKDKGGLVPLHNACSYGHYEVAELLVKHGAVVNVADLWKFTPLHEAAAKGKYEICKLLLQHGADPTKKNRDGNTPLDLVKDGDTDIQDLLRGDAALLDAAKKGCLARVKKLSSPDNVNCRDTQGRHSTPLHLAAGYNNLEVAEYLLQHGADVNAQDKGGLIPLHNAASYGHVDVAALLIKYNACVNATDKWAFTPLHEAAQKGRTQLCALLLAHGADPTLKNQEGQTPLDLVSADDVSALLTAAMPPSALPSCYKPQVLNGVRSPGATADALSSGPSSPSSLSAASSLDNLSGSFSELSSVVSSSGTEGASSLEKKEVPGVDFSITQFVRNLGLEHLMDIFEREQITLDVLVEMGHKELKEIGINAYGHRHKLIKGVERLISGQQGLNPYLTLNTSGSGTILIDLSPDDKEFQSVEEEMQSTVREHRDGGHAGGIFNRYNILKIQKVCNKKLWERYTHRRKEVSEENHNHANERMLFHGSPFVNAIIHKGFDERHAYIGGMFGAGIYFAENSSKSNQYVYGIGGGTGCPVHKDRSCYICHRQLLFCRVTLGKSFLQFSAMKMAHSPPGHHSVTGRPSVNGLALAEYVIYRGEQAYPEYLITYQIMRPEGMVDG
Experimental: In Vitro Scintillation Proximity Assay (SPA) for Tank-2 Inhibitory Activity
Compounds of the present invention were tested in an in vitro assay based on SPA technology with Ni Flash plates (96 or 384 well).
In principle, the assay relies upon SPA technology for the detection of auto-poly(ADP-ribosylation of TANK-2 protein using [^3H]-nicotinamide adenine dinucleotide ([^3H]-NAD^+) as ADP-ribosyl donor.
A stock solution of [^3H]-NAD^+/NAD was made by adding 64.6 μl of [^3H]-NAD^+ (0.1 mCi/ml, supplier: Perkin Elmer) and 46.7 μl NAD-stock (10.7 mM, stored at −20° C., supplier Roche) to 1888.7 μl assay buffer (60 mM Tris/HCl, pH 7.4; 0.9 mM DTT; 6 mM MgCl2). The TANK-2 enzyme was produced as described in EP1238063.60 μl of assay buffer, together with 1 μl of compound in DMSO, 20 μl of [^3H]-NAD^+/NAD and 20 μl of TANK-2 enzyme (final concentration 6 μg/ml) was added per well into a 96-well Ni-coated flash plate (Perkin Elmer). After incubation of the mixture for 120 min. at room temperature, the reaction was terminated by adding 60 μl of stopsolution (42.6 mg NAD in 6 ml H2O). The plates were covered with a plate sealer and placed in a TopCountNXT™ (Packard) for scintillation counting. Values were expressed as counts per minute (cpm). For each experiment, controls (containing TANK-2 enzyme and DMSO without compound), a blank incubation (containing DMSO but no TANK-2 enzyme or compound) and samples (containing TANK-2 enzyme and compound dissolved in DMSO) were run in parallel. All compounds tested were dissolved and eventually further diluted in DMSO. […] In each test, the blank value was subtracted from both the control and the sample values. The control sample represented maximal TANK-2 enzyme activity. For each sample, the amount of cpm was expressed as a percentage of the mean cpm value of the controls. When appropriate, IC50-values (concentration of the drug, needed to reduce the TANK-2 enzyme activity to 50% of the control) were computed using linear interpolation between the experimental points just above and below the 50% level. Herein the effects of test compounds are expressed as pIC50 (the negative log value of the IC50-value). As reference compounds, 3-aminobenzamide and 4-amino-1,8-naphthalimide were included to validate the SPA assay. Herein the assay was described using 96-well plates. In the assay using 384-well plates the same final concentrations were used and volumes were adapted.

[4] = tested on: distal colon (colitis); conditions: rats, colitis by intraluminal trinitrobenzene sulfonic acid in 50% ethanol; cited from earlier work

T1 sequence (P09874 whole entry): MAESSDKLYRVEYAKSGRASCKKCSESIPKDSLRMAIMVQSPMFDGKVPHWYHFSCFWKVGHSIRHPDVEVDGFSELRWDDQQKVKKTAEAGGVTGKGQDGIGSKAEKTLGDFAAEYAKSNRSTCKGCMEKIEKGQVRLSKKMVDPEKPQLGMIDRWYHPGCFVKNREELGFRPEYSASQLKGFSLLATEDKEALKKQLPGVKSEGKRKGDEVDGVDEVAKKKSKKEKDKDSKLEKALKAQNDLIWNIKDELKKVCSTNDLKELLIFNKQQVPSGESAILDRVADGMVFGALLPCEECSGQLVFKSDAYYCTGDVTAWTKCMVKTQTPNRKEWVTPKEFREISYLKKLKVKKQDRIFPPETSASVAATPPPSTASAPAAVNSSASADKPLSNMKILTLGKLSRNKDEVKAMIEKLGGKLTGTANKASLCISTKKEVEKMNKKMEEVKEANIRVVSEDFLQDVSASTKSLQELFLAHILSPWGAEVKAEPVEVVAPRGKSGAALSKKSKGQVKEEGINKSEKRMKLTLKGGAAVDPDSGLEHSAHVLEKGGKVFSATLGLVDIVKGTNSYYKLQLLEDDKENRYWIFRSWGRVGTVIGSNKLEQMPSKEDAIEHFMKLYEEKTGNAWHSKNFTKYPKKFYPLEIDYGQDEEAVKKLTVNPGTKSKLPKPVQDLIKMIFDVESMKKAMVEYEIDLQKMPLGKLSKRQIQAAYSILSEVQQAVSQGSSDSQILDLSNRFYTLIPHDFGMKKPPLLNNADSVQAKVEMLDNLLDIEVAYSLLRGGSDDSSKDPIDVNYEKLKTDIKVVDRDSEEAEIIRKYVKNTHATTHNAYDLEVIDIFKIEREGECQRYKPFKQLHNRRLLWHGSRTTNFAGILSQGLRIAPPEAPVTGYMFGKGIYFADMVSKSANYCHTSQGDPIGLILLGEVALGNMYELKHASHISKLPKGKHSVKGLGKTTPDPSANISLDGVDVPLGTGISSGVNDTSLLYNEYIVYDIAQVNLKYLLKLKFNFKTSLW

SMILES | IC50 [2] | IC50 [3] | melting point | reduced infarct size ([1]; single injection 1 mg/kg) | reductions in infarct size in the heart ([1]; single injection 10 mg/kg, one minute before occlusion or one minute before reperfusion) | effect on inflammatory response and distal colon [4]
Oc1cccc2c(O)nccc12 [1,5-dihydroxyisoquinoline] | – | – | – | 38-48% | – | –
NC(=O)c1cccc(N)c1 [3-amino-benzamide] | – | – | – | – | 32-42% | reduced the inflammatory response
O=c1[nH]nc(C2CCN(CC(O)COc3ccc(F)cc3)CC2)c2ccccc12 (centres unmarked) [Compound 2] | 17.2 nM | – | 226.9 °C | – | – | –
NCCN1CCC(c2n[nH]c(=O)c3ccccc23)CC1 [Compound 8] | 29 nM | > 10000 nM | 202 °C | – | – | –
NCC1CCN(c2n[nH]c(=O)c3ccccc23)CC1 [Compound 9] | 15.5 nM | > 10000 nM | 182 °C | – | – | –

Now from value to compound, other results behind:

IC50 [2] | IC50 [3] | melting point | SMILES | reduced infarct size ([1]; single injection 1 mg/kg) | reductions in infarct size in the heart ([1]; single injection 10 mg/kg, one minute before occlusion or one minute before reperfusion) | effect on inflammatory response and distal colon [4]
88.9 nM | 9620 nM | 259 °C | N#CCN1CCC(c2n[nH]c(=O)c3ccccc23)CC1 [Compound 7] | – | – | –
378 nM | > 10000 nM | 140 °C | CCOC(=O)N1CC[C@H](Nc2n[nH]c(=O)c3ccccc23)C[C@@H]1Cc1ccccc1 [Compound 16] | – | – | –
195 nM | > 10000 nM | > 300 °C | NC(=O)N1CCC(c2n[nH]c(=O)c3ccccc23)CC1 [Compound 6] | – | – | –
24.3 nM | > 10000 nM | 238 °C | O=c1[nH]nc(N[C@H]2CCN[C@@H](Cc3ccccc3)C2)c2ccccc12 [Compound 10] | – | – | –
270 nM | > 10000 nM | 222 °C | CC(=O)N1CCC(c2n[nH]c(=O)c3ccccc23)CC1 [Compound 5] | – | – | –
